Assay results as given in patent publication US5935977A, “Substituted vinyl pyridine derivative and drugs containing the same” (SS Pharmaceutical Co., Ltd., priority 1996, dated 1999).

Legend:
[1] = system: PDE IV; conditions: PDE IV vs other PDE isozymes; cited from earlier work
[2] = system: TNF-α; experiment: TNF-α Production Inhibition Test in LPS-treated U 937 cells; type: cell-based; conditions: U 937 cells differentiated with PMA; LPS 10 ng/ml, 6 hours; human TNF-α ELISA
Protocol: Human promonocytic leukemia cells (U 937 cells, 1×10^5 cells/400 μl) were inoculated on a 24-well culture plate. By use of an RPMI 1640 culture liquid (supplemented with 10% FCS) containing 50 nM PMA, the cells were incubated for 72 hours, to thereby induce differentiation into monocyte/macrophage (see Sarkiz Daniel-Issakani, Allem M. Spiegel and Berta Strulovici (1989), J. Biol. Chem. 264, p20240-20247). Subsequently, the culture supernatant was discarded, and an RPMI 1640 culture liquid (supplemented with 10% FCS) containing 10 ng/ml of LPS (lipopolysaccharide; E. coli, 0111:B4) was added. Each compound was added one hour before the LPS treatment, so as to achieve concentrations of 100 μM, 10 μM, 1 μM, and 0.1 μM. Six hours after addition of LPS, the quantity of produced TNF-α in the supernatant was measured by use of a human TNF-α ELISA kit (Amersham, code RPN 2758), For respective doses of each compound, % control was calculated, wherein the quantity of TNF-α produced when LPS treatment was performed and the compound was not added was considered 100%. Further, based on primary regression curves, there were calculated IC50 values in terms of TNF-α production inhibitory activity for respective compounds.

[3] = system: PDE IV; experiment: PDE Inhibitory Activity Test, PDE IV; type: biochemical; conditions: PDE IV from human histocytic lymphoma (U-937); substrate 1 μM; 20 min at 30° C.
[4] = system: PDE III; experiment: PDE Inhibitory Activity Test, PDE III; type: biochemical; conditions: human platelet PDE III; substrate 1 μM; 20 min at 30° C.
[5] = biological target: T1, PDE V (Homo sapiens, UniProt O76074); experiment: PDE Inhibitory Activity Test, PDE V; type: biochemical; conditions: human platelet PDE V; substrate 1 μM; 20 min at 30° C.
T1 construct: isolated from human tissue and purified in accordance with the method described in literature; from tissue; host or cells: human platelets
Protocol: A variety of PDE isozymes shown below were isolated from human tissue and purified in accordance with the method described in literature.
H. Hidaka, et al., Bioph. Bioch. Acta, (1976), 429, p485
C. D. Nicholson, et al., Trends Pharmacol. Sci., (1991), 12, p19.
The PDE activity was determined through use of a modified two-step assay method described by Hidaka et al. (Bioph. Bioch. Acta., (1976), 429, p485),
Briefly, [^3 H]cAMP and [^3 H]cGMP are hydrolyzed by their respective PDE isozymes to form [^3 H]5'-AMP and [^3 H]5'-GMP, respectively. Subsequently, [^3 H]5^1 -AMP and [^3 H]5^1 -GMP are transformed into [^3 H]adenosine and [^3 H]guanosine, respectively, due to the action of nucleotidases. Unreacted [^3 H]cAMP and [^3 H]cGMP are removed, causing them to bond to ion exchange resin, and the quantity of eluted [^3 H]adenosine or [^3 H]guanosine was counted in a liquid scintillation counter.
The diluted enzyme solution contains 50 mM Tris-HCl (pH 8.0), 5 mM MgCl2, and 50 μg of bovine serum albumin, wherein the concentrations represent final concentrations. The substrate concentration is 1 μM. The concentration of each test compound varies between 0.1 nM and 100 μM. Each test sample is incubated for 20 minutes at 30° C., and the PDE reaction is terminated by boiling for 2 minutes. The nucleotidase reaction was induced by adding snake venom nucleotidase to the above-described reaction mixture and incubating the resultant mixture for 20 minutes at 30° C.

[6] = in vivo; cited from earlier work
[7] = system: PDE; conditions: cited from earlier work

SMILES | potency at PDE IV relative to other PDE isozymes [1] | IC50 [2] | IC50 [3] | IC50 [4] | IC50 [5] | safety range [6] | PDE inhibition selectivity [7]
CCCCOc1cc(CC2CNC(=O)N2)ccc1OC (racemic) [Ro20-1724] | 100 times | – | – | – | – | – | –
COc1cnc(/C(C#N)=C/c2c(Cl)cncc2Cl)cc1O[C@@H]1C[C@H]2CC[C@@H]1C2 (relative stereo) [Example 21, (Z)-3-(3,5-Dichloro-4-pyridyl)-2-[5-methoxy-4-(exo-2-norbornyloxy)-2-pyridyl]propenenitrile] | – | 13.3 µM | – | – | – | – | –
COc1cnc(/C(C#N)=C/c2c(Cl)cncc2Cl)cc1OC1CCCC1 [Example 1, (Z)-2-(4-cyclopentyloxy-5-methoxy-2-pyridyl)-3-(3,5-dichloro-4-pyridyl)propenenitrile] | – | 10.2 µM | 0.0026 µM | 10 µM | > 100 µM | – | –
COc1cnc(/C(C#N)=C/c2ccncc2)cc1OC1CCCC1 [Example 4, (Z)-2-(4-Cyclopentyloxy-5-methoxy-2-pyridyl)-3-(4-pyridyl)propenenitrile] | – | 7.6 µM | – | – | – | – | –
COc1cnc(/C(C#N)=C/c2ccnc3ccccc23)cc1OC1CCCC1 [Example 10, (Z)-2-(4-Cyclopentyloxy-5-methoxy-2-pyridyl)-3-(4-quinolyl)propenenitrile] | – | 10 µM | – | – | – | – | –
COc1cnc(/C(C#N)=C/c2c(OC)cncc2OC)cc1OC1CCCC1 [Example 11, (Z)-2-(4-Cyclopentyloxy-5-methoxy-2-pyridyl)-3-(3,5-dimethoxy-4-pyridyl)propenenitrile] | – | 5.5 µM | – | – | – | – | –
COc1cnc(/C(C#N)=C/c2c(Cl)cncc2Cl)cc1OCCc1ccccc1 [Example 14, (Z)-3-(3,5-Dichloro-4-pyridyl)-2-(5-methoxy-4-phenethyloxy-2-pyridyl)propenenitrile] | – | – | 0.0059 µM | > 100 µM | 5.6 µM | – | –
COc1cnc(/C(C#N)=C/c2c(Cl)cncc2Cl)cc1OCCCc1ccccc1 [Example 15, (Z)-3-(3,5-Dichloro-4-pyridyl)-2-[5-methoxy-4-(3-phenylpropyloxy)-2-pyridyl]propenenitrile] | – | – | 0.0048 µM | 91 µM | 56 µM | – | –
CCCCOc1cc(/C(C#N)=C/c2c(Cl)cncc2Cl)ncc1OC [Example 16, (Z)-2-(4-Butyloxy-5-methoxy-2-pyridyl)-3-(3,5-dichloro-4-pyridyl)propenenitrile] | – | 13.1 µM | 0.015 µM | 15 µM | 31 µM | – | –
CCC(CC)Oc1cc(/C(C#N)=C/c2c(Cl)cncc2Cl)ncc1OC [Example 17, (Z)-3-(3,5-Dichloro-4-pyridyl)-2-[4-(1-ethylpropyloxy)-5-methoxy-2-pyridyl]propenenitrile] | – | – | 0.036 µM | > 100 µM | > 100 µM | – | –
CCOc1cnc(/C(C#N)=C/c2c(Cl)cncc2Cl)cc1OC1CCCC1 [Example 18, (Z)-2-(4-Cyclopentyloxy-5-ethoxy-2-pyridyl)-3-(3,5-dichloro-4-pyridyl)propenenitrile] | – | – | 0.036 µM | 18 µM | 12 µM | – | –
COc1cnc(/C(C#N)=C/c2c(Cl)cncc2Cl)cc1OC1Cc2ccccc2C1 [Example 19, (Z)-3-(3,5-Dichloro-4-pyridyl)-2-[4-(2-indanyloxy)-5-methoxy-2-pyridyl]propenenitrile] | – | 2.9 µM | 0.00065 µM | > 100 µM | > 100 µM | – | –
COc1cnc(/C(C#N)=C/c2c(Cl)cncc2Cl)cc1OC1CCOC1 (centres unmarked) [Example 20, (Z)-3-(3,5-Dichloro-4-pyridyl)-2-[5-methoxy-4-(tetrahydro-3-furanyloxy)-2-pyridyl]propenenitrile] | – | 7.1 µM | 0.011 µM | 56 µM | > 100 µM | – | –
COc1ccc(C2CNC(=O)C2)cc1OC1CCCC1 (centres unmarked) [Rolipram, reference compound] | – | 100 µM | 5 µM | > 100 µM | – | – | –
Cn1c(=O)c2[nH]cnc2n(C)c1=O [theophylline] | – | – | – | – | – | rather narrow | inhibits PDE non-selectively
